Measurements reported in BindingDB's records for doi:10.1021/jm991151j (Smithkline Beecham Pharmaceuticals, 2000).
Structures can show the parent of a compound that is named as a salt.

Legend:
[1] = biological target: 5-hydroxytryptamine receptor 1E (Homo sapiens, UniProt P28566)
[2] = biological target: T1, 5-hydroxytryptamine receptor 1F (Homo sapiens, UniProt P30939)
T1 sequence (P30939 whole entry): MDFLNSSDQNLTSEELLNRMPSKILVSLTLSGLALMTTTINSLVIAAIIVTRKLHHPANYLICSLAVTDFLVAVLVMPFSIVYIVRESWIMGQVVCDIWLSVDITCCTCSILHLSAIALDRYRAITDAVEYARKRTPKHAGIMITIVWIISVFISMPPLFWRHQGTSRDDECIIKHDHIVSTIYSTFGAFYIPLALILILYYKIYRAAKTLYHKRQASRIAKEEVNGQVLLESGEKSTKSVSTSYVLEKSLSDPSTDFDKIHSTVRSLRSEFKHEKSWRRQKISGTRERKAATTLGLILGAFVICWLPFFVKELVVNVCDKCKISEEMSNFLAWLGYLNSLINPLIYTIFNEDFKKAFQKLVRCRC

[3] = biological target: 5-hydroxytryptamine receptor 2B (Homo sapiens, UniProt P41595)
5-hydroxytryptamine receptor 2B, sequence (P41595 whole entry): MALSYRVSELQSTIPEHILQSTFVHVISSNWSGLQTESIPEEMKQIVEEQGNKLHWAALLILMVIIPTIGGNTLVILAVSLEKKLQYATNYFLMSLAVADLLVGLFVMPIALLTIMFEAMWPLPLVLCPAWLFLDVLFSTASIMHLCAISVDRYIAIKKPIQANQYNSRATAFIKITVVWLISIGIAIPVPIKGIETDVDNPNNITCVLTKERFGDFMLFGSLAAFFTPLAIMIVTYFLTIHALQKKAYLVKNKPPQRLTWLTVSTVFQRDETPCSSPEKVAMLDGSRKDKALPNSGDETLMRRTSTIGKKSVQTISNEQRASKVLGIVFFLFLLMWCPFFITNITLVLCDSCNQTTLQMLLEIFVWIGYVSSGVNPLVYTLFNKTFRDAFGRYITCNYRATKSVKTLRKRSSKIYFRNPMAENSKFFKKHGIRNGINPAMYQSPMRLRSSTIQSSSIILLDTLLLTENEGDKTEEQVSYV

[4] = biological target: 5-hydroxytryptamine receptor 4 (Homo sapiens, UniProt Q13639)
5-hydroxytryptamine receptor 4, sequence (Q13639 whole entry): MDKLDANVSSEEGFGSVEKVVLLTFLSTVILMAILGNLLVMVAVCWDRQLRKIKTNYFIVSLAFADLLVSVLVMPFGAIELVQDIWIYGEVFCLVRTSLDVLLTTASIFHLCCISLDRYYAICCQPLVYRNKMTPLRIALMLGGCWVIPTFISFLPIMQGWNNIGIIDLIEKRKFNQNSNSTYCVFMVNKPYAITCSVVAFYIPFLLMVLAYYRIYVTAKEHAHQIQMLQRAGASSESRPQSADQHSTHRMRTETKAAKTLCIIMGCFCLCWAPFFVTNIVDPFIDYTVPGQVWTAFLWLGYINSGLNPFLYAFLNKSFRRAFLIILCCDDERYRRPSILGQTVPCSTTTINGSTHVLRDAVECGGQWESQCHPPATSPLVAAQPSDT

[5] = biological target: T2, 5-hydroxytryptamine receptor 2C (Homo sapiens, UniProt P28335)
T2 sequence (P28335 whole entry): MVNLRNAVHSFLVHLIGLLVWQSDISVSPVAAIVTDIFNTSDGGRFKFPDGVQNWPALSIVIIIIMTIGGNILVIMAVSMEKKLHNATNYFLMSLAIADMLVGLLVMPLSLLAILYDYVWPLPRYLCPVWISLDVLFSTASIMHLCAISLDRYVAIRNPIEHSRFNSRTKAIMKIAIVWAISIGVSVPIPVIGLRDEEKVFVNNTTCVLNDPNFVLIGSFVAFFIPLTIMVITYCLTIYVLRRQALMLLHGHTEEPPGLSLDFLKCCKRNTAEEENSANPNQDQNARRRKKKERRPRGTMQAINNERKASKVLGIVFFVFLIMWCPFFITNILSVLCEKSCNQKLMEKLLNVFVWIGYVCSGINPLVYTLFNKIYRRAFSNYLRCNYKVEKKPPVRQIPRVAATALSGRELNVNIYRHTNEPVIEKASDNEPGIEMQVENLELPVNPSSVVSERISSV

[6] = biological target: 5-hydroxytryptamine receptor 6 (Homo sapiens, UniProt P50406)
5-hydroxytryptamine receptor 6, sequence (P50406 whole entry): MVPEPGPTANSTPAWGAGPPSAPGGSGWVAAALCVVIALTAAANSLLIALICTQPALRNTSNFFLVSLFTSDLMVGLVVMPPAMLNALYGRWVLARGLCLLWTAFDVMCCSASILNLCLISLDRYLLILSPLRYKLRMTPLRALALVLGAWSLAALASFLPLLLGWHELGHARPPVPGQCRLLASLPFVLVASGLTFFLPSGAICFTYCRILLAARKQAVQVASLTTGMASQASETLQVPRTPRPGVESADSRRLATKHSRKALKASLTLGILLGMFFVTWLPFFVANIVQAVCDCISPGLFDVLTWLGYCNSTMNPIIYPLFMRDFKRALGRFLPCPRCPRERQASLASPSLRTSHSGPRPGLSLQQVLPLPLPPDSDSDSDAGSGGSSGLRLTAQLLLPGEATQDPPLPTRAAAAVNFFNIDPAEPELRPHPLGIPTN

[7] = biological target: T3, Alpha-1B adrenergic receptor (Homo sapiens, UniProt P35368)
T3 sequence (P35368 whole entry): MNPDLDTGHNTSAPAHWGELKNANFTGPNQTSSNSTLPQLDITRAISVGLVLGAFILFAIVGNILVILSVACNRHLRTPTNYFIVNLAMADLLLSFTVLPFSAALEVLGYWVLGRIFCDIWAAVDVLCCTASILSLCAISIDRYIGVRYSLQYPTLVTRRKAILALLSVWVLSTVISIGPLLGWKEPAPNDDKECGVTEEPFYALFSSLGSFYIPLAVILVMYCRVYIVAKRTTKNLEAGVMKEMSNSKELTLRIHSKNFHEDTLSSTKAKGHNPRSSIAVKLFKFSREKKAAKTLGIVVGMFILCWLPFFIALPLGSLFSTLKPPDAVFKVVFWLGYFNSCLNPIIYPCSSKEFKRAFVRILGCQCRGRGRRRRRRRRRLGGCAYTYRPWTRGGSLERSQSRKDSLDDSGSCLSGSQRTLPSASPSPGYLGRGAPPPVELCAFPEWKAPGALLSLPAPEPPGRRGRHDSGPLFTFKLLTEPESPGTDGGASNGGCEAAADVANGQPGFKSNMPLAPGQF

5-hydroxytryptamine receptor 1E, sequence (P28566 whole entry): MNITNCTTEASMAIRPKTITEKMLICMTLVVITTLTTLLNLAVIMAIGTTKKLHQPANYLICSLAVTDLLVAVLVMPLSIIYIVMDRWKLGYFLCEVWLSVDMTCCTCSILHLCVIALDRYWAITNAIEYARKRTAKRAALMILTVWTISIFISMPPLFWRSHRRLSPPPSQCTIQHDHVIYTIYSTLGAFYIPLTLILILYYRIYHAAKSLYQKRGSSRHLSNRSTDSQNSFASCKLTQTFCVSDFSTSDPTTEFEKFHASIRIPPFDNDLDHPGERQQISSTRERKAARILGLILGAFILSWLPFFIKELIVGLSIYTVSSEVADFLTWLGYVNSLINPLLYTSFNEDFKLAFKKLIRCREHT

Compound: CC1CCN(CC[C@H]2CCCN2S(=O)(=O)c2cccc3ccccc23)CC1 [(R)-4-Methyl-1-(2-(1-(naphthalene-1-sulfonyl)-pyrrolidin-2-yl)-ethyl)-piperidine(10)]
- Ki [1]: > 10 µM
- Ki [2]: > 10 µM

Compound: CC1CCN(CC[C@H]2CCCN2S(=O)(=O)c2cccc(Br)c2)CC1 [(R)-1-(2-(1-(3-bromo-benzenesulfonyl)-pyrrolidin-2-yl)-ethyl)-4-methyl piperidine]
- Ki [3]: 1.58 µM
- Ki [1]: 2.51 µM
- Ki [4]: 6.31 µM
- Ki [2]: 5.01 µM
- Ki [5]: 5.01 µM

Compound: CC1CCN(CC[C@H]2CCCN2S(=O)(=O)c2ccc(Cl)c(Cl)c2)CC1 [(R)-1-(2-(1-(3,4-Dichloro-benzenesulfonyl)-pyrrolidin-2-yl)-ethyl)-4-methyl piperidine]
- Ki [4]: 3.16 µM
- Ki [2]: 3.16 µM

Compound: COc1cccc(S(=O)(=O)N2CCC[C@@H]2CCN2CCC(C)CC2)c1 [(R)-1-(2-(1-(3-methoxy-benzenesulfonyl)-pyrrolidin-2-yl)-ethyl-4-methylpiperidine]
- Ki [6]: > 10 µM

Compound: CC1CCN(CC[C@H]2CCCN2S(=O)(=O)c2cccc(O)c2)CC1 [(R)-3-(2-(2-(4-methylpiperidin-1-yl)ethyl)pyrrolidine-1-sulfonyl)phenol]
- Ki [7]: > 10 µM
- Ki [2]: 3.16 µM

Compound: Cc1cccc(S(=O)(=O)N2CCC[C@@H]2CCN2CCC(C)CC2)c1 [(R)-4-Methyl-1-(2-(1-toluene-3-sulfonyl)-pyrrolidin-2-yl)-ethyl)-piperidine (Oxalate salt)]
- Ki [3]: 2.51 µM
- Ki [1]: > 10 µM
- Ki [4]: > 10 µM
- Ki [2]: > 10 µM
